Data taken from patent US20200360352A1, “USE OF RIFAMYCIN-NITROIMIDAZOLE COUPLING MOLECULE” (priority 2019, published 2020).
Values after ≈ are worked out from the molar mass of the structure shown. Where two headings read alike, the source gives them in different places. Values belong to the compound of their own block, whether it stands above or below them.

What was measured:
Type in all cases: cell-based
[1] = test system: Mycobacterium avium; experiment: MIC, micro broth dilution with resazurin readout; details: read-out: Minimum Inhibitory Concentration (MIC)
[2] = test system: Mycobacterium abscessus; experiment: MIC, micro broth dilution with resazurin readout; details: Mycobacteroides abscessus, read-out: Minimum Inhibitory Concentration (MIC)
[3] = test system: Mycobacterium kansasii; experiment: MIC, micro broth dilution with resazurin readout; details: read-out: Minimum Inhibitory Concentration (MIC)
[4] = test system: Mycobacterium avium; experiment: MBC, plating of MIC wells and CFU count; details: read-out: Minimum Bactericidal Concentration (MBC)
[5] = test system: Mycobacterium abscessus; experiment: MBC, plating of MIC wells and CFU count; details: Mycobacteroides abscessus, read-out: Minimum Bactericidal Concentration (MBC)
[6] = test system: Mycobacterium kansasii; experiment: MBC, plating of MIC wells and CFU count; details: read-out: Minimum Bactericidal Concentration (MBC)
[7] = test system: Mycobacterium intracellulare; experiment: MIC, micro broth dilution with resazurin readout; details: MH Culture Medium, read-out: Minimum Inhibitory Concentration (MIC)
[8] = test system: Mycobacterium massiliense; experiment: MIC, micro broth dilution with resazurin readout; details: Mycobacteroides abscessus, MH Culture Medium, read-out: Minimum Inhibitory Concentration (MIC)
[9] = test system: Mycobacterium fortuitum; experiment: MIC, micro broth dilution with resazurin readout; details: Mycolicibacterium fortuitum, MH Culture Medium, read-out: Minimum Inhibitory Concentration (MIC)
[10] = test system: Mycodacterium chelonei; experiment: MIC, micro broth dilution with resazurin readout; details: MH Culture Medium; Chelonei (standard strain); read-out: Minimum Inhibitory Concentration (MIC)
[11] = 7H9 Broth, Mycobacterium avium Rough
[12] = 7H9 Broth, Mycobacterium avium Smooth
[13] = MH Broth, Mycobacterium avium Rough
[14] = MH Broth, Mycobacterium avium Smooth

MIC [1, 11]: > 64 µg/mL | MIC [1, 12]: 2 µg/mL (≈ 3.42 µM) | MIC [1, 13]: 2 µg/mL (≈ 3.42 µM) | MIC [1, 14]: 2 µg/mL (≈ 3.42 µM) | MIC ([2]; 7H9 Broth): 32 µg/mL (≈ 54.6 µM) | MIC ([2]; MH Broth): 16 µg/mL (≈ 27.3 µM) | MIC ([3]; 7H9 Broth): 16 µg/mL (≈ 27.3 µM) | MIC ([3]; MH Broth): 1 µg/mL (≈ 1.71 µM)
SMILES: NCC[C@H](O)C(=O)N[C@@H]1C[C@H](N)[C@@H](O[C@H]2O[C@H](CN)[C@@H](O)[C@H](O)[C@H]2O)[C@H](O)[C@H]1O[C@H]1O[C@H](CO)[C@@H](O)[C@H](N)[C@H]1O [Amikacin]
MBC [4, 11]: > 64 µg/mL | MBC [4, 12]: > 64 µg/mL | MBC [4, 13]: > 64 µg/mL | MBC [4, 14]: > 64 µg/mL | MBC ([5]; 7H9 Broth): > 64 µg/mL | MBC ([5]; MH Broth): > 64 µg/mL | MBC ([6]; 7H9 Broth): 64 µg/mL (≈ 109 µM) | MBC ([6]; MH Broth): > 64 µg/mL

SMILES: O=C(O)c1cn(C2CC2)c2cc(N3CCNCC3)c(F)cc2c1=O [Ciprofloxacin]
MIC [1, 12]: > 64 µg/mL | MIC [1, 14]: > 64 µg/mL | MIC ([2]; 7H9 Broth): 16 µg/mL (≈ 48.3 µM) | MIC ([2]; MH Broth): > 64 µg/mL | MIC ([3]; 7H9 Broth): > 64 µg/mL | MIC ([3]; MH Broth): > 64 µg/mL | MBC [4, 12]: > 64 µg/mL | MBC [4, 14]: > 64 µg/mL | MBC ([5]; 7H9 Broth): > 64 µg/mL | MBC ([5]; MH Broth): > 64 µg/mL | MBC ([6]; 7H9 Broth): > 64 µg/mL | MBC ([6]; MH Broth): > 64 µg/mL

MIC [1, 11]: > 64 µg/mL | MIC [1, 12]: 32 µg/mL (≈ 42.8 µM) | MIC [1, 13]: > 64 µg/mL | MIC [1, 14]: > 64 µg/mL | MIC ([1]; MH Culture Medium, Avium (standard strain)): 0.0625 µg/mL (≈ 0.0836 µM) | MIC ([1]; MH Culture Medium, clinically isolated strain Avium (S31)): 0.125 µg/mL (≈ 0.167 µM) | MIC ([1]; MH Culture Medium, clinically isolated strain Avium (S123)): 0.5 µg/mL (≈ 0.668 µM) | MIC ([1]; MH Culture Medium, clinically isolated strain Avium (S559)): 0.25 µg/mL (≈ 0.334 µM) | MIC ([1]; MH Culture Medium, clinically isolated strain Avium (S568)): 4 µg/mL (≈ 5.35 µM) | MIC ([1]; MH Culture Medium, clinically isolated strain Avium (S577)): 0.25 µg/mL (≈ 0.334 µM) | MIC ([1]; MH Culture Medium, clinically isolated strain Avium (S597)): 1 µg/mL (≈ 1.34 µM) | MIC ([1]; MH Culture Medium, clinically isolated strain Avium (S602)): 1 µg/mL (≈ 1.34 µM) | MIC ([2]; 7H9 Broth): 16 µg/mL (≈ 21.4 µM) | MIC ([2]; MH Broth): 64 µg/mL (≈ 85.6 µM) | MIC ([3]; 7H9 Broth): 2 µg/mL (≈ 2.67 µM) | MIC ([3]; MH Broth): 2 µg/mL (≈ 2.67 µM) | MIC ([3]; MH Culture Medium, Kansasii (standard strain)): 0.0625 µg/mL (≈ 0.0836 µM) | MIC ([3]; MH Culture Medium, clinically isolated strain Kansasii (S9)): 0.125 µg/mL (≈ 0.167 µM) | MIC ([3]; MH Culture Medium, clinically isolated strain Kansasii (S199)): 0.0625 µg/mL (≈ 0.0836 µM) | MIC ([3]; MH Culture Medium, clinically isolated strain Kansasii (S520)): 0.0625 µg/mL (≈ 0.0836 µM) | MIC ([3]; MH Culture Medium, clinically isolated strain Kansasii (S609)): 0.125 µg/mL (≈ 0.167 µM) | MIC ([7]; Intracellulare (standard strain)): 0.0625 µg/mL (≈ 0.0836 µM) | MIC ([7]; clinically isolated strain Intracellulare (S90)): 1 µg/mL (≈ 1.34 µM) | MIC ([7]; clinically isolated strain Intracellulare (S261)): 1 µg/mL (≈ 1.34 µM) | MIC ([7]; clinically isolated strain Intracellulare (S269)): 1 µg/mL (≈ 1.34 µM) | MIC ([7]; clinically isolated strain Intracellulare (S290)): 1 µg/mL (≈ 1.34 µM) | MIC ([7]; clinically isolated strain Intracellulare (S291)): 1 µg/mL (≈ 1.34 µM) | MIC ([7]; clinically isolated strain Intracellulare (S298)): 2 µg/mL (≈ 2.67 µM) | MIC ([7]; clinically isolated strain Intracellulare (S442)): 2 µg/mL (≈ 2.67 µM) | MIC ([7]; clinically isolated strain Intracellulare (S541)): 64 µg/mL (≈ 85.6 µM) | MIC ([7]; clinically isolated strain Intracellulare (S623)): 4 µg/mL (≈ 5.35 µM) | MIC ([7]; clinically isolated strain Intracellulare (ZPS)): 1 µg/mL (≈ 1.34 µM) | MIC ([8]; clinically isolated strain Massiliense (D10)): 0.25 µg/mL (≈ 0.334 µM) | MIC ([8]; clinically isolated strain Massiliense (D14)): 0.0625 µg/mL (≈ 0.0836 µM) | MIC ([8]; clinically isolated strain Massiliense (D18)): 0.0625 µg/mL (≈ 0.0836 µM) | MIC ([9]; Fortuitum (standard strain)): 32 µg/mL (≈ 42.8 µM) | MIC ([9]; clinically isolated strain Fortuitum (S103)): > 64 µg/mL | MIC ([9]; clinically isolated strain Fortuitum (S111)): 2 µg/mL (≈ 2.67 µM) | MIC [10]: 0.5 µg/mL (≈ 0.668 µM)
SMILES: CC[C@H]1OC(=O)[C@H](C)[C@@H](O[C@H]2C[C@@](C)(OC)[C@@H](O)[C@H](C)O2)[C@H](C)[C@@H](O[C@@H]2O[C@H](C)C[C@H](N(C)C)[C@H]2O)[C@](C)(OC)C[C@@H](C)C(=O)[C@H](C)[C@@H](O)[C@]1(C)O [Clarithromycin]
MBC [4, 11]: > 64 µg/mL | MBC [4, 12]: > 64 µg/mL | MBC [4, 13]: > 64 µg/mL | MBC [4, 14]: > 64 µg/mL | MBC ([5]; 7H9 Broth): > 64 µg/mL | MBC ([5]; MH Broth): > 64 µg/mL | MBC ([6]; 7H9 Broth): 64 µg/mL (≈ 85.6 µM) | MBC ([6]; MH Broth): > 64 µg/mL
